Key:
Format in all cases: in vivo
Settings in all cases: 250 g/ha, evaluated after 13 days
CHEAL = assay: Post-emergence biological efficacy, glasshouse
Method: (§1) Seeds of weeds and/or crops were sown in standard soil in pots. After cultivation for 14 days under controlled conditions in a glasshouse (at 24/19° C., day/night; 16 hours light), the plants were sprayed with an aqueous spray solution derived from the formulation of the technical active ingredient in a small amount of acetone and a special solvent and emulsifier mixture referred to as IF50 (11.12% Emulsogen EL360 TM+44.44% N-methylpyrrolidone+44.44% Dowanol DPM glycol ether), to create a 50 g/I solution which was then diluted using 0.2% Genapol X080 as diluent to give the desired final dose of test compound.
(§2) The test plants were then grown under controlled conditions in the glasshouse (at 24/18° C., day/night; 15 hours light; 50% humidity) and watered twice daily. After 13 days the test was evaluated (100=total damage to plant; 0=no damage to plant).

EPHHL [1] = assay: Post-emergence biological efficacy, glasshouse
Method: as §1, §2

ELEIN = assay: Post-emergence biological efficacy, glasshouse
Method: as §1, §2

ECHCG [2] = assay: Post-emergence biological efficacy, glasshouse
Method: as §1, §2

DIGSA = assay: Post-emergence biological efficacy, glasshouse
Method: as §1, §2

LOLPE [3] = assay: Post-emergence biological efficacy, glasshouse
Method: as §1, §2

AMAPA [4] = assay: Post-emergence biological efficacy, glasshouse
Method: as §1, §2

SETFA [5] = assay: Post-emergence biological efficacy, glasshouse
Method: as §1, §2

IPOHE [6] = assay: Post-emergence biological efficacy, glasshouse
Method: as §1, §2

EPHHL [7] = assay: Pre-emergence biological efficacy, glasshouse
Method: as §1, with “one day” for “14 days”
(§3) The test plants were then grown under controlled conditions in the glasshouse (at 24/18° C., day/night; […]; 50% humidity) and watered twice daily. After 13 days the test was evaluated (100=total damage to plant; 0=no damage to plant).

ECHCG [8] = assay: Pre-emergence biological efficacy, glasshouse
Method: as §1, with “one day” for “14 days”
as §3

LOLPE [9] = assay: Pre-emergence biological efficacy, glasshouse
Method: as §1, with “one day” for “14 days”
as §3

AMAPA [10] = assay: Pre-emergence biological efficacy, glasshouse
Method: as §1, with “one day” for “14 days”
as §3

SETFA [11] = assay: Pre-emergence biological efficacy, glasshouse
Method: as §1, with “one day” for “14 days”
as §3

IPOHE [12] = assay: Pre-emergence biological efficacy, glasshouse
Method: as §1, with “one day” for “14 days”
as §3

In the case of `CCOC(=O)C1(C)CC(c2cc(-n3c(OC)nc(C(F)(F)F)cc3=O)c(F)cc2Cl)=NO1` (racemic) [Compound 11, Ethyl 3-[2-chloro-4-fluoro-5-[2-methoxy-6-oxo-4-(trifluoromethyl)pyrimidin-1-yl]phenyl]-5-methyl-4H-isoxazole-5-carboxylate], the “damage to plant (100=total damage to plant; 0=no damage to plant), CHEAL” value (CHEAL) is reported as 100, the “damage to plant (100=total damage to plant; 0=no damage to plant), EPHHL” value (EPHHL [1]) is reported as 100 and the “damage to plant (100=total damage to plant; 0=no damage to plant), ELEIN” value (ELEIN) is reported as 100. For the same molecule, the “damage to plant (100=total damage to plant; 0=no damage to plant), ECHCG” value (ECHCG [2]) was 100, the “damage to plant (100=total damage to plant; 0=no damage to plant), DIGSA” value (DIGSA) was 100 and the “damage to plant (100=total damage to plant; 0=no damage to plant), LOLPE” value (LOLPE [3]) was 100. The “damage to plant (100=total damage to plant; 0=no damage to plant), AMAPA” value (AMAPA [4]) was 100, the “damage to plant (100=total damage to plant; 0=no damage to plant), SETFA” value (SETFA [5]) was 100 and the “damage to plant (100=total damage to plant; 0=no damage to plant), IPOHE” value (IPOHE [6]) was 100. The “damage to plant (100=total damage to plant; 0=no damage to plant), EPHHL” value (EPHHL [7]) was 100, the “damage to plant (100=total damage to plant; 0=no damage to plant), ECHCG” value (ECHCG [8]) was 100 and the “damage to plant (100=total damage to plant; 0=no damage to plant), LOLPE” value (LOLPE [9]) was 80. The “damage to plant (100=total damage to plant; 0=no damage to plant), AMAPA” value (AMAPA [10]) was 100, the “damage to plant (100=total damage to plant; 0=no damage to plant), SETFA” value (SETFA [11]) was 100 and the “damage to plant (100=total damage to plant; 0=no damage to plant), IPOHE” value (IPOHE [12]) was 80.
`CCOC(=O)[C@@]1(C)CC(c2cc(-n3c(OC)nc(C(F)(F)F)cc3=O)c(F)cc2Cl)=NO1` [11 (R-enantiomer), Ethyl (5R)-3-[2-chloro-4-fluoro-5-[2-methoxy-6-oxo-4-(trifluoromethyl)pyrimidin-1-yl]phenyl]-5-methyl-4H-isoxazole-5-carboxylate] was tested, and the “damage to plant (100=total damage to plant; 0=no damage to plant), CHEAL” value (CHEAL) was 100, the “damage to plant (100=total damage to plant; 0=no damage to plant), EPHHL” value (EPHHL [1]) was 90 and the “damage to plant (100=total damage to plant; 0=no damage to plant), ELEIN” value (ELEIN) was 100. For the same molecule, the “damage to plant (100=total damage to plant; 0=no damage to plant), ECHCG” value (ECHCG [2]) was 100, the “damage to plant (100=total damage to plant; 0=no damage to plant), DIGSA” value (DIGSA) was 100 and the “damage to plant (100=total damage to plant; 0=no damage to plant), LOLPE” value (LOLPE [3]) was 100. For the same molecule, the “damage to plant (100=total damage to plant; 0=no damage to plant), AMAPA” value (AMAPA [4]) was 100, the “damage to plant (100=total damage to plant; 0=no damage to plant), SETFA” value (SETFA [5]) was 80 and the “damage to plant (100=total damage to plant; 0=no damage to plant), IPOHE” value (IPOHE [6]) was 100. For the same molecule, the “damage to plant (100=total damage to plant; 0=no damage to plant), EPHHL” value (EPHHL [7]) was 50, the “damage to plant (100=total damage to plant; 0=no damage to plant), ECHCG” value (ECHCG [8]) was 90 and the “damage to plant (100=total damage to plant; 0=no damage to plant), LOLPE” value (LOLPE [9]) was 10. The “damage to plant (100=total damage to plant; 0=no damage to plant), AMAPA” value (AMAPA [10]) was 10, the “damage to plant (100=total damage to plant; 0=no damage to plant), SETFA” value (SETFA [11]) was 90 and the “damage to plant (100=total damage to plant; 0=no damage to plant), IPOHE” value (IPOHE [12]) was 70.
For `CCOC(=O)[C@]1(C)CC(c2cc(-n3c(OC)nc(C(F)(F)F)cc3=O)c(F)cc2Cl)=NO1` [11 (S-enantiomer), ethyl (5S)-3-[2-chloro-4-fluoro-5-[2-methoxy-6-oxo-4-(trifluoromethyl)pyrimidin-1-yl]phenyl]-5-methyl-4H-isoxazole-5-carboxylate], the “damage to plant (100=total damage to plant; 0=no damage to plant), CHEAL” value (CHEAL) was 100, the “damage to plant (100=total damage to plant; 0=no damage to plant), EPHHL” value (EPHHL [1]) was 100 and the “damage to plant (100=total damage to plant; 0=no damage to plant), ELEIN” value (ELEIN) was 100. The “damage to plant (100=total damage to plant; 0=no damage to plant), ECHCG” value (ECHCG [2]) was 100, the “damage to plant (100=total damage to plant; 0=no damage to plant), DIGSA” value (DIGSA) was 100 and the “damage to plant (100=total damage to plant; 0=no damage to plant), LOLPE” value (LOLPE [3]) was 100. For the same molecule, the “damage to plant (100=total damage to plant; 0=no damage to plant), AMAPA” value (AMAPA [4]) was 100, the “damage to plant (100=total damage to plant; 0=no damage to plant), SETFA” value (SETFA [5]) was 100 and the “damage to plant (100=total damage to plant; 0=no damage to plant), IPOHE” value (IPOHE [6]) was 100. The “damage to plant (100=total damage to plant; 0=no damage to plant), EPHHL” value (EPHHL [7]) was 90, the “damage to plant (100=total damage to plant; 0=no damage to plant), ECHCG” value (ECHCG [8]) was 100 and the “damage to plant (100=total damage to plant; 0=no damage to plant), LOLPE” value (LOLPE [9]) was 40. The “damage to plant (100=total damage to plant; 0=no damage to plant), AMAPA” value (AMAPA [10]) was 100, the “damage to plant (100=total damage to plant; 0=no damage to plant), SETFA” value (SETFA [11]) was 100 and the “damage to plant (100=total damage to plant; 0=no damage to plant), IPOHE” value (IPOHE [12]) was 80.
